Measurements from BindingDB's records for patent US11111233 (Shenzhen Targetrx, 2021).

What was measured:
[1] = target: Epidermal growth factor receptor [T790M,L858R] (Homo sapiens, UniProt P00533, L858R/T790M); assay: Kinase Inhibition Assay
Experimental: (§1) Then, it was diluted in DMSO with a 3-fold series gradient dilution for 10 times. […] The corresponding substrate and ATP were added and reacted at room temperature for 20 minutes (in which a negative and a positive control were set: the negative control is blank and the positive control is erlotinib). […] The inhibitions of the enzyme activity by the compounds at different concentrations were then fitted using Graphpad 5.0 software according to the four-parameter equation, and the IC50 values were calculated.

[2] = target: Epidermal growth factor receptor (Homo sapiens, UniProt P00533); assay: Kinase Inhibition Assay
Epidermal growth factor receptor, sequence (P00533 whole entry): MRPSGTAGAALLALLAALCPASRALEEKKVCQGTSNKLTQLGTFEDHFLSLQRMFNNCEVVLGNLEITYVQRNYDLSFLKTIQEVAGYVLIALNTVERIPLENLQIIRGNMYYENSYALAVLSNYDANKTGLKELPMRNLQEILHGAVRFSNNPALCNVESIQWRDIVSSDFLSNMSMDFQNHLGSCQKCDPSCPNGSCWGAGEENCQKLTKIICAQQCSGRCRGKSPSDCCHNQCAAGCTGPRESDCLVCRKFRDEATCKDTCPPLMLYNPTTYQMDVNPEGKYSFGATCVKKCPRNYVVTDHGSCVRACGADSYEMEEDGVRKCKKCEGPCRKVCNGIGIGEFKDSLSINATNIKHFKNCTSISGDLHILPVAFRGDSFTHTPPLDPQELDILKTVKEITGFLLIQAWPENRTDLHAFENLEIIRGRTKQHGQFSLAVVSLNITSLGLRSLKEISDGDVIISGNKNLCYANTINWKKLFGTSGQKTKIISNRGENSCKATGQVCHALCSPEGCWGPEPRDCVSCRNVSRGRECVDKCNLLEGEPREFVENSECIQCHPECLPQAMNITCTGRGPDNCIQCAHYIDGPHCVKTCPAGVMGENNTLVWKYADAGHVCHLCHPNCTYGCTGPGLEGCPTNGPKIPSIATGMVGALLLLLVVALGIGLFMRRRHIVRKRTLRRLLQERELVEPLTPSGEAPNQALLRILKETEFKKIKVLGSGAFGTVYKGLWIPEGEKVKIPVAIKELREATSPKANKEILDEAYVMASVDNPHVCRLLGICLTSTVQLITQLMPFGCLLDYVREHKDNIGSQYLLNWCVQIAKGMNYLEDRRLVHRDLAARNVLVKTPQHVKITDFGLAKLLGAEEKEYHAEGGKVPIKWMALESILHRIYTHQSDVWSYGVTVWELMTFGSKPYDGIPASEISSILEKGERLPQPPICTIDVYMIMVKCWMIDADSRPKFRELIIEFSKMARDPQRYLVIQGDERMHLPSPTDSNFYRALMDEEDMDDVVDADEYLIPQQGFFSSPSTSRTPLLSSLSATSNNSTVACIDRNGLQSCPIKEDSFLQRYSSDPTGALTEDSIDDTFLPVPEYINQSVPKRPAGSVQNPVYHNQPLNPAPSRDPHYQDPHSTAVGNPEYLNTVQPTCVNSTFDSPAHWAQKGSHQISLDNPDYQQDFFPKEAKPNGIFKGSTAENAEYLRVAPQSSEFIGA
Experimental: as §1

Epidermal growth factor receptor [T790M,L858R], sequence (P00533 25-1210 T790M/L858R limits assumed): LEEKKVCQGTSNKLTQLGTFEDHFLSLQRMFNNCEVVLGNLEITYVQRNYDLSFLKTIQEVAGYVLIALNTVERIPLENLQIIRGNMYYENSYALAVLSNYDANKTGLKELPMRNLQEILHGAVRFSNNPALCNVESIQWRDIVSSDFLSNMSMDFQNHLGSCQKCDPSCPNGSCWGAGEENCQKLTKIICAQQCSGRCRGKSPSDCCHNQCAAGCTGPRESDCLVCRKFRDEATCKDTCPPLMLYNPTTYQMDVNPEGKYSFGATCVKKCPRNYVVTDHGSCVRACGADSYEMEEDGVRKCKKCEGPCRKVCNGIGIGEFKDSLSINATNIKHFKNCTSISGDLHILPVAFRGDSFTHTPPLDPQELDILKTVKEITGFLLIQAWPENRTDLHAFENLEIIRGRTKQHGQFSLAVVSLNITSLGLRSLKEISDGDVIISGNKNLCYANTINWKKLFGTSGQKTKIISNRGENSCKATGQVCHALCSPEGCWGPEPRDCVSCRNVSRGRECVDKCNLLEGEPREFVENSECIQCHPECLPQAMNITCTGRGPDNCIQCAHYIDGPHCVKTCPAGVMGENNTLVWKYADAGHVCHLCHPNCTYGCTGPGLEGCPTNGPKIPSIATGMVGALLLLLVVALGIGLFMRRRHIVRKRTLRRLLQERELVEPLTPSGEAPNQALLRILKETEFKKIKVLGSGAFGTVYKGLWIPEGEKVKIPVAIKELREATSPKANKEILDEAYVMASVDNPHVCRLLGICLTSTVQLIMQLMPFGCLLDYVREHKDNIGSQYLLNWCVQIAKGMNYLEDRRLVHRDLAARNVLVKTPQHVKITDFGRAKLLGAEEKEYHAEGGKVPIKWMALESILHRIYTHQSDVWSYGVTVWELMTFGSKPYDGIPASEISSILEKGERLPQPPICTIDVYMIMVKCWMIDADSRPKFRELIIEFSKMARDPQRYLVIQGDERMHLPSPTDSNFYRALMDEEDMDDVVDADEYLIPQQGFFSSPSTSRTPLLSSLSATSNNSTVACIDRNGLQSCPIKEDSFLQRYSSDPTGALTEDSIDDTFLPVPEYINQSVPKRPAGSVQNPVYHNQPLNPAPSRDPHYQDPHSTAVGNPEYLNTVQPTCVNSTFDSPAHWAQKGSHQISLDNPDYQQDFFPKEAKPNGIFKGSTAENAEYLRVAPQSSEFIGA

Row | SMILES | IC50 [1] | IC50 [2]
1 | C=CC(=O)Nc1cc(Nc2nccc(-c3cc(F)c4nc(C)n(C(C)C)c4c3)n2)c(OC)cc1OCCN(C)C [US11111233, Example 12] | < 1 nM | –
2 | C=CC(=O)Nc1cc(Nc2nccc(-c3cc(F)c4nc(C)n(C(C)C)c4c3)n2)c(OC)cc1N1CCOCC1 [US11111233, Example 16] | – | > 100 nM
